How the values were obtained:
[1] = biological target: Calcium/calmodulin-dependent protein kinase type II subunit beta (Homo sapiens) (UniProt Q13554)
[2] = biological target: Calcium/calmodulin-dependent protein kinase kinase 2 (Homo sapiens, UniProt Q96RR4)
[3] = biological target: Serine/threonine-protein kinase Chk2 (Homo sapiens, UniProt O96017)
[4] = biological target: T1, Myotonin-protein kinase (Homo sapiens) (UniProt Q09013)
T1 sequence (whole entry): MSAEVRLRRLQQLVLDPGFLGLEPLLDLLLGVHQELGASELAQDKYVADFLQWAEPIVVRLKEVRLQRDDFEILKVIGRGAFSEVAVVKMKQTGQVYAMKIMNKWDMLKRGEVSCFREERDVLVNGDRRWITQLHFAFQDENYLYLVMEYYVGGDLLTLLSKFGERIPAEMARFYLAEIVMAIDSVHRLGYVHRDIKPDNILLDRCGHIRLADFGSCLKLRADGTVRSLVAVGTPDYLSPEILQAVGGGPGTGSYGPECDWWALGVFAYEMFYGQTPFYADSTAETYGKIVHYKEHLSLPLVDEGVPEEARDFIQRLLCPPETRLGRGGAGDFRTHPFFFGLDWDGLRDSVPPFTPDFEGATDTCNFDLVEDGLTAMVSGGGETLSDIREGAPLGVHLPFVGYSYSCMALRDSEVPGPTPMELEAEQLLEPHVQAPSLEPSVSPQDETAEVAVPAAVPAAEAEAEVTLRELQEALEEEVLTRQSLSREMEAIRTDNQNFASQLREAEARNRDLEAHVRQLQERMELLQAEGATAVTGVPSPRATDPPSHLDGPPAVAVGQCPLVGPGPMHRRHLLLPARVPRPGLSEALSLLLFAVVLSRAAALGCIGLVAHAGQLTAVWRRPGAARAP

[5] = biological target: Dual specificity mitogen-activated protein kinase kinase 2 (Homo sapiens, UniProt P36507)
[6] = biological target: T2, Dual specificity mitogen-activated protein kinase kinase 6 (Homo sapiens) (UniProt P52564)
T2 sequence (whole entry): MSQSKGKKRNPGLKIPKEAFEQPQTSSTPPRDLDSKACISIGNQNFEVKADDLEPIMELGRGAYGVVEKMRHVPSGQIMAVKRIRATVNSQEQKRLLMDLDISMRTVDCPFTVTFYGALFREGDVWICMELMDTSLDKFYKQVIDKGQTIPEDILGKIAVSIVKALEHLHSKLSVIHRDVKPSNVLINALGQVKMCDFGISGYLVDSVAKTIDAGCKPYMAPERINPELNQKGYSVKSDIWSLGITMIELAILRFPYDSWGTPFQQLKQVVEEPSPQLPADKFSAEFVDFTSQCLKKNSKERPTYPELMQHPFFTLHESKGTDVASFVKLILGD

[7] = biological target: Mitogen-activated protein kinase 3 (Homo sapiens, UniProt P27361)
[8] = biological target: Serine/threonine-protein kinase Nek6 (Homo sapiens) (UniProt Q9HC98)
[9] = biological target: Serine/threonine-protein kinase PAK 5 (Homo sapiens) (UniProt Q9P286)
[10] = biological target: cAMP-dependent protein kinase catalytic subunit alpha (Homo sapiens) (UniProt P17612)
[11] = biological target: Serine/threonine-protein kinase RIO2 (Homo sapiens) (UniProt Q9BVS4)
[12] = biological target: Serine/threonine-protein kinase 38 (Homo sapiens) (UniProt Q15208)
[13] = biological target: Serine/threonine-protein kinase 26 (Homo sapiens) (UniProt Q9P289)

Serine/threonine-protein kinase PAK 5 (Homo sapiens), sequence (Q9P286 whole entry, looked up): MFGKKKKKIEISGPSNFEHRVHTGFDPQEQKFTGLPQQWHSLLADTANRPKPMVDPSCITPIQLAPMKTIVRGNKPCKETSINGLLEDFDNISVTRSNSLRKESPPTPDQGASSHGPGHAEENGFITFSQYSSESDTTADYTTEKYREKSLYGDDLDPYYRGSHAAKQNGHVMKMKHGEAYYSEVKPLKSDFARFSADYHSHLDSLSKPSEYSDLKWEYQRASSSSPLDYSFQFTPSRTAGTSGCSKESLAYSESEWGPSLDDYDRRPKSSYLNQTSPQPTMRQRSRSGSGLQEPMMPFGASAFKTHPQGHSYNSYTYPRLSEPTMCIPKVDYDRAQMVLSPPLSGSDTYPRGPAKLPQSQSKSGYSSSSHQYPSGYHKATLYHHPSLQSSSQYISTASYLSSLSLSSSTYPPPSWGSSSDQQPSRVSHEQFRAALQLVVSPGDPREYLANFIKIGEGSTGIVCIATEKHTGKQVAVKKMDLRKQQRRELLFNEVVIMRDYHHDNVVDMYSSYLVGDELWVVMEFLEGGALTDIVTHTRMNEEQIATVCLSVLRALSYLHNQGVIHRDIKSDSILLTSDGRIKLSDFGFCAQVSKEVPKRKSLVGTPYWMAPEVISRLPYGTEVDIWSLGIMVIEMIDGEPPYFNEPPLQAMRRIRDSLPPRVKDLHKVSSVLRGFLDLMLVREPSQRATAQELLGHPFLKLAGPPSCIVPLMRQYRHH
Dual specificity mitogen-activated protein kinase kinase 2, sequence (P36507 whole entry): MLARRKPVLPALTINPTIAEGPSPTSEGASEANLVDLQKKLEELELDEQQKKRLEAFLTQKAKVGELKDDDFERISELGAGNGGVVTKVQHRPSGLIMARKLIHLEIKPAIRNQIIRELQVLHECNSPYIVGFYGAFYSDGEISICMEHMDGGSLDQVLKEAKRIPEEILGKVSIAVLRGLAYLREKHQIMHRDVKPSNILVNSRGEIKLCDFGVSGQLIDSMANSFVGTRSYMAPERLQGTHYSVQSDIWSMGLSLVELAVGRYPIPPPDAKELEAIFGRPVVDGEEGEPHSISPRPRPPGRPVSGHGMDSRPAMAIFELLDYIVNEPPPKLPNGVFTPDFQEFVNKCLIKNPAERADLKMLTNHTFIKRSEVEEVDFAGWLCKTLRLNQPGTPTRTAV
Calcium/calmodulin-dependent protein kinase type II subunit beta (Homo sapiens), sequence (Q13554 whole entry): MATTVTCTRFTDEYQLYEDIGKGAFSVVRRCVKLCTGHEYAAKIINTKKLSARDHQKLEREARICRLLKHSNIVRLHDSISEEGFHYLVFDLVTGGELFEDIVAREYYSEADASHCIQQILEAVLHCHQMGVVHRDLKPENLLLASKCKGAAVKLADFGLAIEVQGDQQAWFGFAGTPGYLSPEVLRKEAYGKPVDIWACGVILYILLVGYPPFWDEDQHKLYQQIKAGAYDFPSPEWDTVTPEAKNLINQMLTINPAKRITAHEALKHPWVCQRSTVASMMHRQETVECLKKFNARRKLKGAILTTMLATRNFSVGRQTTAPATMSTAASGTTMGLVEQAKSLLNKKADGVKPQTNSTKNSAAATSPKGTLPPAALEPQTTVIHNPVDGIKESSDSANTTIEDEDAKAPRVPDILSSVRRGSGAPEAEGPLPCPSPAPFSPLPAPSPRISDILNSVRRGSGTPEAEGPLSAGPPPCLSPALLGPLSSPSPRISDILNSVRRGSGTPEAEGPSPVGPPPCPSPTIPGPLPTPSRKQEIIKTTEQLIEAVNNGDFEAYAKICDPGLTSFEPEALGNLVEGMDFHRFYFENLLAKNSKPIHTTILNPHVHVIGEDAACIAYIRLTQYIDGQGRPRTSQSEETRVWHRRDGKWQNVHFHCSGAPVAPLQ
Serine/threonine-protein kinase Chk2, sequence (O96017 whole entry): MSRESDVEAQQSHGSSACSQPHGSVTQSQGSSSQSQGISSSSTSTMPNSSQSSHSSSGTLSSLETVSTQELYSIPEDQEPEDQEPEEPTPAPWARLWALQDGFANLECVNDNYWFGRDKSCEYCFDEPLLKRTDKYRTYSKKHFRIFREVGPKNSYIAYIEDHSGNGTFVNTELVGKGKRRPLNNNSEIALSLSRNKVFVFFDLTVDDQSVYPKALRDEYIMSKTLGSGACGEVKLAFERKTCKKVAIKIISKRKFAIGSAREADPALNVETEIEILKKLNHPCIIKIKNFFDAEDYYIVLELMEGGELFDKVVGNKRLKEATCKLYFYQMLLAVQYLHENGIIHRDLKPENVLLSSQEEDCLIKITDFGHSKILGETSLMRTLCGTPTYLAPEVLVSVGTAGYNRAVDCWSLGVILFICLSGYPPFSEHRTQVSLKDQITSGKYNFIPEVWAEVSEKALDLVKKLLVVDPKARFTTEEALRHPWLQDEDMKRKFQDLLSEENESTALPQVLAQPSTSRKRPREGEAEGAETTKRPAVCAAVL
Serine/threonine-protein kinase Nek6 (Homo sapiens), sequence (Q9HC98 whole entry): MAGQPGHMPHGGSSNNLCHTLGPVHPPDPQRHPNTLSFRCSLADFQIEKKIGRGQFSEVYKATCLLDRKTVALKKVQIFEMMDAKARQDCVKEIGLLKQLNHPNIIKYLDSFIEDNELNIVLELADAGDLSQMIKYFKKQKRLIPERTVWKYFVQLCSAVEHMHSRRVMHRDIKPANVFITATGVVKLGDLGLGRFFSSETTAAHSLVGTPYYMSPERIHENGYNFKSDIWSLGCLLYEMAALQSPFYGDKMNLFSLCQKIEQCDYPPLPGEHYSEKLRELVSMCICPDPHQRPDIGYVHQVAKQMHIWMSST
Serine/threonine-protein kinase RIO2 (Homo sapiens), sequence (Q9BVS4 whole entry, looked up): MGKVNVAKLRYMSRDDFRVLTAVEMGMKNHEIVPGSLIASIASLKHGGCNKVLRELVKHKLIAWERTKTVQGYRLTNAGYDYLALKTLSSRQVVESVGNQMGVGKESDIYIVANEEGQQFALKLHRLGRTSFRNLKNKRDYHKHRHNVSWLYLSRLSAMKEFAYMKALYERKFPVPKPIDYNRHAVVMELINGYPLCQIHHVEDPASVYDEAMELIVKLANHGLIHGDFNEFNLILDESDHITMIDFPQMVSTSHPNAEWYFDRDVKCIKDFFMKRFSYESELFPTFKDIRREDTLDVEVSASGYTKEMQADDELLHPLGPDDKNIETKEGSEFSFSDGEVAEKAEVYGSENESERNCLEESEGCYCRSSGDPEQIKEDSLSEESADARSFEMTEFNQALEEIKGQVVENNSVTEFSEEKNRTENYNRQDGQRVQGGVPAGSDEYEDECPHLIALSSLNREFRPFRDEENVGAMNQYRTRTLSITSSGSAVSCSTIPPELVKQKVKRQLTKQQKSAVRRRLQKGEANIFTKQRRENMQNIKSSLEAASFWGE
Calcium/calmodulin-dependent protein kinase kinase 2, sequence (Q96RR4 2-588 limits assumed): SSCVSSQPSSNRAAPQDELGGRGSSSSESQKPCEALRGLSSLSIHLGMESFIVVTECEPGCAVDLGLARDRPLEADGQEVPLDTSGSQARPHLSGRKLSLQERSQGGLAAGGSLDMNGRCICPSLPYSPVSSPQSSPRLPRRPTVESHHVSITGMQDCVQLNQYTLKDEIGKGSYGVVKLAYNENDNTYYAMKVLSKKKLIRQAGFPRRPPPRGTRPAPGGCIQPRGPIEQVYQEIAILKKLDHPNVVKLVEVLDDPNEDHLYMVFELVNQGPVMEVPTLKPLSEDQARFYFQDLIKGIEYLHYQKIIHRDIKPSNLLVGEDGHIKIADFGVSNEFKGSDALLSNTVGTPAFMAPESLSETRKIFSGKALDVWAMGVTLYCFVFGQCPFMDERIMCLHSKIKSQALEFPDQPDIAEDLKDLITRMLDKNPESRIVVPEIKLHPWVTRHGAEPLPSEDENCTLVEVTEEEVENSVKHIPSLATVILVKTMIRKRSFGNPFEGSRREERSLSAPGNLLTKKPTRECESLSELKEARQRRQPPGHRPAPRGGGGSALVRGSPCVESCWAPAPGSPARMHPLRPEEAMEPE
Mitogen-activated protein kinase 3, sequence (P27361 whole entry): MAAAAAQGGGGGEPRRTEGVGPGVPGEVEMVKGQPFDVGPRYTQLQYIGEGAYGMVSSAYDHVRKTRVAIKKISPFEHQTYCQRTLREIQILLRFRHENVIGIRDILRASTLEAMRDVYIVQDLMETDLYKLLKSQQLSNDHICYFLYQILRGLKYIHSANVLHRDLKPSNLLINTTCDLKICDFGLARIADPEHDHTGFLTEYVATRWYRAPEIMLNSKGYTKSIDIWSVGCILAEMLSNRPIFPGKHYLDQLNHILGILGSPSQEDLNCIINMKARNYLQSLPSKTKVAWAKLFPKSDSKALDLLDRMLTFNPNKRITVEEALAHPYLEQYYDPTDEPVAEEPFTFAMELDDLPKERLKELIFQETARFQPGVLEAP
Serine/threonine-protein kinase 38 (Homo sapiens), sequence (Q15208 2-465 limits assumed): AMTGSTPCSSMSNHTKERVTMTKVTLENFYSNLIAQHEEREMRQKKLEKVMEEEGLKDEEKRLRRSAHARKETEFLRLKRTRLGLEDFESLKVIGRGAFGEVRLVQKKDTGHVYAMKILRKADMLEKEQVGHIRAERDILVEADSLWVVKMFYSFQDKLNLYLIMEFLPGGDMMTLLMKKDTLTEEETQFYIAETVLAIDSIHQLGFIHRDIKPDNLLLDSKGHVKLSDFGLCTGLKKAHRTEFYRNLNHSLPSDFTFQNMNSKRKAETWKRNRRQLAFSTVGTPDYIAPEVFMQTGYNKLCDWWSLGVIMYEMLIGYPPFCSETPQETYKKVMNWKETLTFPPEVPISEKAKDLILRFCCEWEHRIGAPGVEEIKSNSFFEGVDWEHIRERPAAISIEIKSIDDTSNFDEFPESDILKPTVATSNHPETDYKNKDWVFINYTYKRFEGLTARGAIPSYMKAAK

Row | Structure (SMILES) | ΔTm [1] [°C] | ΔTm [2] [°C] | ΔTm [3] [°C] | ΔTm [4] [°C] | ΔTm [5] [°C] | ΔTm [6] [°C] | ΔTm [7] [°C] | ΔTm [8] [°C] | ΔTm [9] [°C] | ΔTm [10] [°C] | ΔTm [11] [°C] | ΔTm [12] [°C] | ΔTm [13] [°C]
1 | CC(C)(C)c1nc2c3ccc(F)cc3c3c(=O)[nH]ccc3c2[nH]1 | 1.3 | 1.3 | 14.1 | 0.5 | 3.6 | 6 | 3.1 | 0.3 | 2.1 | 2.6 | 0.7 | 3.7 | 3.6
2 | COc1ccc(CNC(=O)Nc2ncc([N+](=O)[O-])s2)cc1 | -0.5 | 0 | 0.4 | 0.1 | -0.5 | 0.2 | 0.2 | 0.4 | 0.7 | 1 | 1.7 | 0.1 | 1.5
3 | Cc1nc(Nc2ncc(C(=O)Nc3c(C)cccc3Cl)s2)cc(N2CCN(CCO)CC2)n1 | -0.3 | 0.6 | 1.2 | 4.6 | -0.2 | 0.5 | 0 | 0.2 | -0.6 | 0.4 | 2.3 | – | –
4 | O=c1c(-c2ccc(F)cc2)c(-c2ccncc2)[nH]n1-c1ccc(Cl)cc1 | 0 | 0.2 | 0.3 | 0.5 | 1.9 | 0.3 | 1.2 | 0.8 | -0.1 | 1.5 | -0.2 | 0.5 | 0.6

The remaining lines, values ahead:

Row | ΔTm [1] [°C] | ΔTm [2] [°C] | ΔTm [3] [°C] | ΔTm [4] [°C] | ΔTm [5] [°C] | ΔTm [6] [°C] | ΔTm [7] [°C] | ΔTm [8] [°C] | ΔTm [9] [°C] | ΔTm [10] [°C] | ΔTm [11] [°C] | ΔTm [12] [°C] | ΔTm [13] [°C] | Structure (SMILES)
5 | 0.2 | 0.2 | 0.4 | -0.6 | 0.2 | 0.4 | 0.8 | 1 | 0.3 | 0.6 | 1.5 | 0.1 | 0 | N#C/C(=C\c1ccc(O)c(O)c1)C(=O)NCc1ccccc1
6 | 0 | 0.8 | 0 | 0.3 | 0.2 | -0.2 | -0.1 | 0 | -0.3 | -0.2 | 0 | -0.4 | -0.1 | O=C(O)c1cc(NCc2cc(O)ccc2O)ccc1O
7 | 0.1 | -0.3 | 1.4 | -0.7 | 0.3 | 0 | 0 | 0.4 | 0.8 | 0.8 | -0.3 | 0 | 0.9 | Oc1cccc(-c2nc(N3CCOCC3)c3oc4ncccc4c3n2)c1
8 | – | -0.8 | -0.7 | 0.3 | -0.4 | -0.1 | 0.1 | 0 | 0.1 | 0.4 | 0.3 | 0.4 | 0.3 | C[C@@H](N)[C@H]1CC[C@H](C(=O)Nc2ccncc2)CC1
9 | -0.6 | 0.3 | 0.9 | 2.3 | 0.7 | 0.2 | 0.4 | 0.3 | -0.4 | 0.3 | -0.4 | 1.9 | -0.1 | Nc1n[nH]c2nnc(-c3c(-c4ccccc4)nn4ccccc34)cc12
10 | 1.6 | 4.3 | 3.1 | -0.3 | 4.4 | 3.6 | 0.9 | 0.1 | 2.6 | 3.8 | 2.6 | 2.7 | 2.7 | O=Nc1c(-c2c(O)[nH]c3ccccc23)[nH]c2ccccc12
